The text below walks through data of PubChem BioAssay AID248 (DTP/NCI, 2004).

The assay has as its system L1210 leukemia ip in BDF1 mice, survival T/C. Briefly: NCI In Vivo Anticancer Drug Screen. Data for tumor model L1210 Leukemia (intraperitoneal) in B6D2F1 (BDF1) mice. Particulars: endpoint: mean survival time, higher = longer survival. The method in brief: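 Mice bearing the transplanted tumor received compound or vehicle. Survival of the treated group was divided by that of the vehicle-treated control group to give the ratio.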

The mark [1] stands for this setting: dose: 100.0 mg/kg/injection, schedule: Q01DX009 (ip), vehicle: saline with Tween-80.
Setting [2] is: dose: 100.0 mg/kg/injection, schedule: Q04DX003 (ip), vehicle: saline with Tween-80.
Where [3] appears, read: dose: 200.0 mg/kg/injection, schedule: Q01DX009 (ip), vehicle: saline with Tween-80.
[4] abbreviates: dose: 400.0 mg/kg/injection, schedule: Q01DX009 (ip), vehicle: saline with Tween-80.
[5] abbreviates: dose: 400.0 mg/kg/injection, schedule: Q04DX003 (ip), vehicle: saline with Tween-80.

Values joined by “and” are separate entries in the source; they are usually repeats but may differ in a detail not shown here. Identical values can stand only once. Toxic doses and inconclusive results are not listed.

As for `O=C(Nc1cccc(Cl)c1)Nc1cc(Cl)ccc1Cl`, the T/C runs as follows: under setting [1], 92 % of control; under setting [2], 96 % of control; under setting [3], 90 % of control; (dose: 200.0 mg/kg/injection, schedule: Q04DX003 (ip), vehicle: saline with Tween-80) 91 % of control; under setting [4], 94 % of control; under setting [5], 97 % of control.

With `C=CCC1(CCC)C(=O)NC(=O)NC1=O`, the T/C is 100 % of control (dose: 25.0 mg/kg/injection, schedule: Q01DX009 (ip), vehicle: saline); 112 % of control (dose: 50.0 mg/kg/injection, schedule: Q01DX009 (ip), vehicle: saline); 100 % of control (dose: 100.0 mg/kg/injection, schedule: Q01DX009 (ip), vehicle: saline); 92 % of control (dose: 100.0 mg/kg/injection, schedule: Q04DX003 (ip), vehicle: Klucel (hydroxypropylcellulose) (HPC)).

For `O=S(=O)(Oc1cccc(C(F)(F)F)c1)c1cccc(C(F)(F)F)c1`, the T/C is 101 % of control (dose: 6.25 mg/kg/injection, schedule: Q01DX009 (ip), vehicle: saline sonified); 103 % of control (dose: 6.25 mg/kg/injection, schedule: Q04DX003 (ip), vehicle: Klucel (hydroxypropylcellulose) (HPC)); 97 % of control (dose: 12.5 mg/kg/injection, schedule: Q01DX009 (ip), vehicle: saline sonified); 109 % of control (dose: 12.5 mg/kg/injection, schedule: Q04DX003 (ip), vehicle: Klucel (hydroxypropylcellulose) (HPC)); 90 % of control (dose: 25.0 mg/kg/injection, schedule: Q01DX009 (ip), vehicle: saline sonified); 117 % of control (dose: 25.0 mg/kg/injection, schedule: Q04DX003 (ip), vehicle: Klucel (hydroxypropylcellulose) (HPC)). Also, the T/C (dose: 200.0 mg/kg/injection, schedule: Q04DX003 (ip), vehicle: Klucel (hydroxypropylcellulose) (HPC)) was 86 % of control.

Regarding `CNC1=CC(=O)C1(F)F`, the T/C reads like this: (dose: 12.5 mg/kg/injection, schedule: Q01DX001 (ip), vehicle: Klucel (hydroxypropylcellulose) (HPC)) 101 % of control; (dose: 25.0 mg/kg/injection, schedule: Q01DX001 (ip), vehicle: Klucel (hydroxypropylcellulose) (HPC)) 108 % of control; (dose: 50.0 mg/kg/injection, schedule: Q01DX001 (ip), vehicle: Klucel (hydroxypropylcellulose) (HPC)) 108 % of control.

For the molecule `CCCCC(C)(C)COc1nc(OCC(C)(C)CCCC)nc(OCC(C)(C)CCCC)n1`, the T/C reads like this: (dose: 25.6 mg/kg/injection, schedule: Q04DX002 (ip), vehicle: saline with Tween-80) 97 % of control; (dose: 64.0 mg/kg/injection, schedule: Q04DX002 (ip), vehicle: saline with Tween-80) 87 % of control; under setting [2], 89 % of control; (dose: 400.0 mg/kg/injection, schedule: Q04DX002 (ip), vehicle: saline with Tween-80) 91 % of control; under setting [5], 89 % of control.

Take `Cc1cc(N(CCCl)CCCl)ccc1C=Nc1ccc(-c2nc(Cc3ccccc3)sc2C)cc1`: the T/C was 117 % of control (dose: 100.0 mg/kg/injection, schedule: Q01DX001 (ip), vehicle: carboxymethylcellulose (CMC)); 98 % of control (dose: 200.0 mg/kg/injection, schedule: Q01DX001 (ip), vehicle: carboxymethylcellulose (CMC)); 110 % of control (dose: 400.0 mg/kg/injection, schedule: Q01DX001 (ip), vehicle: carboxymethylcellulose (CMC)).

For `CC(C)C(NC(=O)OCc1ccccc1)C(=O)O` (stereo not given), the T/C (dose: 9.37 mg/kg/injection, schedule: Q01DX009 (ip), vehicle: saline) is 98 % of control; the T/C (dose: 18.75 mg/kg/injection, schedule: Q01DX009 (ip), vehicle: saline) is 93 % of control; the T/C (dose: 37.5 mg/kg/injection, schedule: Q01DX009 (ip), vehicle: saline) is 100 % of control; the T/C (dose: 37.5 mg/kg/injection, schedule: Q04DX003 (ip), vehicle: saline) is 103 % of control; the T/C (dose: 75.0 mg/kg/injection, schedule: Q01DX001 (ip), vehicle: saline) is 96 % of control; the T/C (dose: 75.0 mg/kg/injection, schedule: Q04DX003 (ip), vehicle: saline) was 101 % of control. For the setting “dose: 150.0 mg/kg/injection, schedule: Q01DX001 (ip), vehicle: saline”, the T/C was 102 % of control.

`COc1cc(/C=N/NC(=O)CNC(=O)c2ccccc2)ccc1O`: the T/C is, setting by setting: under setting [1], 102 % of control; under setting [3], 102 % of control; under setting [4], 101 % of control.

For `COC(=O)NC1CC(OC2CC(O)(C(C)=O)Cc3c(O)c4c(c(O)c32)C(=O)c2c(OC)cccc2C4=O)OC(C)C1O` (stereo not given), the T/C is, setting by setting: (dose: 2.0 mg/kg/injection, schedule: Q04DX003 (ip), vehicle: water) 105 % of control; (dose: 3.12 mg/kg/injection, schedule: Q01DX009 (ip), vehicle: saline with Tween-80) 103 % of control; (dose: 4.0 mg/kg/injection, schedule: Q04DX003 (ip), vehicle: water) 106 % of control; (dose: 6.25 mg/kg/injection, schedule: Q01DX009 (ip), vehicle: saline with Tween-80) 178 % of control; (dose: 8.0 mg/kg/injection, schedule: Q04DX003 (ip), vehicle: water) 112 % of control; (dose: 12.5 mg/kg/injection, schedule: Q01DX009 (ip), vehicle: saline with Tween-80) 124 % of control. The T/C by setting is: (dose: 16.0 mg/kg/injection, schedule: Q04DX003 (ip), vehicle: water) 109 % of control and 111 % of control; (dose: 18.75 mg/kg/injection, schedule: Q04DX003 (ip), vehicle: saline with Tween-80) 112 % of control; (dose: 25.0 mg/kg/injection, schedule: Q01DX009 (ip), vehicle: saline with Tween-80) 120 % of control; (dose: 32.0 mg/kg/injection, schedule: Q04DX003 (ip), vehicle: water) 110 % of control; (dose: 37.5 mg/kg/injection, schedule: Q04DX003 (ip), vehicle: saline with Tween-80) 118 % of control; (dose: 50.0 mg/kg/injection, schedule: Q01DX009 (ip), vehicle: saline with Tween-80) 122 % of control. Besides, the T/C is, setting by setting: (dose: 64.0 mg/kg/injection, schedule: Q04DX003 (ip), vehicle: water) 110 % of control; (dose: 75.0 mg/kg/injection, schedule: Q04DX003 (ip), vehicle: saline with Tween-80) 118 % of control; (dose: 150.0 mg/kg/injection, schedule: Q04DX003 (ip), vehicle: saline with Tween-80) 115 % of control; (dose: 125.0 micrograms/kg/injection, schedule: Q04DX003 (ip), vehicle: water) 102 % of control; (dose: 250.0 micrograms/kg/injection, schedule: Q04DX003 (ip), vehicle: water) 107 % of control; (dose: 500.0 micrograms/kg/injection, schedule: Q04DX003 (ip), vehicle: water) 101 % of control. In addition, the T/C is, setting by setting: (dose: 1000.0 micrograms/kg/injection, schedule: Q04DX003 (ip), vehicle: water) 103 % of control; (dose: 2000.0 micrograms/kg/injection, schedule: Q04DX003 (ip), vehicle: water) 106 % of control.

On to `O=C(COc1ccc(Cl)c(Cl)c1)NCc1cccc(NC(=O)c2cccc(S(=O)(=O)F)c2)c1`, for which the T/C was 107 % of control (dose: 100.0 mg/kg/injection, schedule: Q01DX001 (ip), vehicle: Klucel (hydroxypropylcellulose) (HPC)); 98 % of control (dose: 200.0 mg/kg/injection, schedule: Q01DX001 (ip), vehicle: Klucel (hydroxypropylcellulose) (HPC)); 91 % of control (dose: 400.0 mg/kg/injection, schedule: Q01DX001 (ip), vehicle: Klucel (hydroxypropylcellulose) (HPC)).

Regarding `O=C(O)C/C(=C/c1ccc2c(c1)OCO2)C(=O)O`, the T/C (dose: 100.0 mg/kg/injection, schedule: Q01DX009 (sc), vehicle: olive oil, sesame oil, peanut oil) was 102 % of control; the T/C (dose: 100.0 mg/kg/injection, schedule: Q04DX003 (sc), vehicle: olive oil, sesame oil, peanut oil) was 106 % of control; the T/C (dose: 200.0 mg/kg/injection, schedule: Q01DX009 (sc), vehicle: olive oil, sesame oil, peanut oil) was 100 % of control; the T/C (dose: 200.0 mg/kg/injection, schedule: Q04DX003 (sc), vehicle: olive oil, sesame oil, peanut oil) was 106 % of control; the T/C (dose: 400.0 mg/kg/injection, schedule: Q01DX009 (sc), vehicle: olive oil, sesame oil, peanut oil) is 98 % of control; the T/C (dose: 400.0 mg/kg/injection, schedule: Q04DX003 (sc), vehicle: olive oil, sesame oil, peanut oil) was 101 % of control.

Consider `CC(=O)NC1(CO)CCCCC1`, for which the T/C (dose: 100.0 mg/kg/injection, schedule: Q04DX003 (ip), vehicle: saline) was 105 % of control; the T/C (dose: 200.0 mg/kg/injection, schedule: Q04DX003 (ip), vehicle: saline) is 95 % of control; the T/C (dose: 400.0 mg/kg/injection, schedule: Q04DX003 (ip), vehicle: saline) was 94 % of control.
